Experimental findings from patent US20140094465A1, “Compounds as S-Nitrosoglutathione Reductase Inhibitors” (N30 PHARMACEUTICALS, INC., priority 2011, published 2014) are described below.

The subject of data set [1] is dextran sodium sulfate (DSS)-induced IBD. Put plainly: Chronic treatment model of DSS-induced IBD. Particulars: oral 10 mg/kg/day for up to 14 days, treatment regimen. The class given is in vivo, mouse. An excerpt: Acute and chronic models of dextran sodium sulfate (DSS)-induced IBD in mice were used to explore efficacy of GSNORi against this disease. Acute and chronic DSS-induced IBD are widely used and well characterized models that induce pathological changes in the colon similar to those observed in the human disease. In these models and in human disease, epithelial cells within the crypts of the colon are disrupted, leading to dysfunction of the epithelial barrier and the ensuing tissue inflammation, edema, and ulceration. GSNORi therapy may benefit IBD by restoring s-nitrosoglutathione (GSNO) levels, and thus prevent or reverse the epithelial barrier dysfunction. Experimental IBD was induced by administration of DSS in the drinking water of male C57Bl/6 mice (N=10 to 12 mice per group) for 6 consecutive days. GSNORi was dosed orally at doses of 10 mg/kg/day for 14 days starting one day after cessation of DSS exposure. […] Levels of circulating cytokines involved in inflammatory pathways were also assessed. The effect of GSNORi was compared to vehicle treated controls. […] Naïve mice (N=5) were also assessed as a normal tissue control.

The target of data set [2] is T1, S-nitrosoglutathione reductase (GSNOR) (Homo sapiens, UniProt P11766).
T1 construct: made in house; host or cells: E. coli
Put plainly: GSNOR assay (inhibition of GSNOR activity, NADH absorbance at 340 nm). The data set is classed as biochemical. The note with it: GSNOR inhibitor activity, Tables 1-6; read-out: IC50 range. The method, boiled down:
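Recombinant GSNOR purified from E. coli, tag removed. Final conditions: 100 mM NaPO4 pH 7.4, 0.240 mM GSNO, 0.300 mM NADH, 0.5 μg/mL enzyme, 1% DMSO; NADH loss followed as 340 nm absorbance change over 3 min at 25 °C. Compounds 100–0.003 μM, triplicate; IC50 by curve analysis.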

The subject of data set [3] is cigarette smoke-induced COPD. Put plainly: Subchronic (11 day) cigarette smoke exposure COPD model. The class given is in vivo, mouse. Particulars: subchronic 11 day model; for effects compared with roflumilast: roflumilast 5 mg/kg/day. As to the method: Infiltration of inflammatory cells into the bronchoalveolar lavage fluid (BALF) and BALF levels of chemokines involved in inflammation and tissue turnover/repair were measured to assess the influences of GSNOR inhibitors on some of the early events associated with the initiation and progression of COPD. […] In animal models, changes in lung pathology are only evident after extended (several months) duration of exposure to cigarette smoke, thus making chronic models prohibitive as effective screening tools. […] The key roles of inflammation in the initiation and progression of COPD, make these short duration models relevant for initial tests of efficacy of novel therapeutics. Female C57Bl/6 mice (N=10 per group) were exposed to cigarette smoke generated from Marlboro 100 cigarettes without filters. Exposure times were 25 min. on study day 1, 35 min. on study day 2, and 45 min. on study days 3 to 11. GSNOR inhibitors were administered one hour prior to smoke exposure on each day. GSNOR inhibitors were dosed orally at 1 to 10 mg/kg/day for 11 days. […] The effect of GSNOR inhibitors were compared to vehicle treated controls and expressed as percent inhibition of the cigarette smoke induced increases in BALF cell numbers. Roflumilast was used as the positive control for the study and was dosed at 5 mg/kg/day. A group of naïve mice (N=10) was exposed to air and dosed with vehicle as a negative control for the study.

Data set [4] deals with dextran sodium sulfate (DSS)-induced IBD. Put plainly: Acute prophylactic model of DSS-induced IBD. The data set is classed as in vivo, mouse. An excerpt: Acute and chronic models of dextran sodium sulfate (DSS)-induced IBD in mice were used to explore efficacy of GSNORi against this disease. Acute and chronic DSS-induced IBD are widely used and well characterized models that induce pathological changes in the colon similar to those observed in the human disease. In these models and in human disease, epithelial cells within the crypts of the colon are disrupted, leading to dysfunction of the epithelial barrier and the ensuing tissue inflammation, edema, and ulceration. GSNORi therapy may benefit IBD by restoring s-nitrosoglutathione (GSNO) levels, and thus prevent or reverse the epithelial barrier dysfunction. Experimental IBD was induced by administration of DSS in the drinking water of male C57Bl/6 mice (N=8 to 10 mice per group) for 6 consecutive days. GSNORi was dosed orally at doses of 0.1 to 10 mg/kg/day for 10 days starting two days prior to and continuing two days post DSS exposure. […] Levels of circulating cytokines involved in inflammatory pathways were also assessed. The effect of GSNORi was compared to vehicle treated controls. […] Naïve mice (N=5) were also assessed as a normal tissue control.

Data set [5] relates to cigarette smoke-induced COPD. Nature of the data set: Acute (4 day) cigarette smoke exposure COPD model. The data set is classed as in vivo, mouse. Particulars: acute 4 day smoke model. As for the experimental part:
The efficacy of GSNOR inhibitors was assessed in a mouse model of chronic obstructive pulmonary disease (COPD) induced by short duration (4 days or 11 days) of exposure to cigarette smoke. Infiltration of inflammatory cells into the bronchoalveolar lavage fluid (BALF) and BALF levels of chemokines involved in inflammation and tissue turnover/repair were measured to assess the influences of GSNOR inhibitors on some of the early events associated with the initiation and progression of COPD.
Efficacy of GSNOR inhibitors against COPD was explored using acute (4 day) and subchronic (11 day) models of cigarette smoke-induced COPD in mice. […] In animal models, changes in lung pathology are only evident after extended (several months) duration of exposure to cigarette smoke, thus making chronic models prohibitive as effective screening tools. More recently, models exploring inflammatory responses after short duration (2 weeks or less) of smoke exposure in mice have been utilized as tools for screening efficacy and mechanisms of action of novel therapeutics against COPD. The key roles of inflammation in the initiation and progression of COPD, make these short duration models relevant for initial tests of efficacy of novel therapeutics.
Female C57Bl/6 mice (N=8 per group) were exposed to cigarette smoke using a whole body exposure chamber. Mice were exposed daily for 4 consecutive days to 4 cycles of smoke from 6 sequential cigarettes (Kentucky 3R4F without filter) with a 30 minute smoke free interval between cycles. GSNOR inhibitors were administered daily via oral dosing at 10 mg/kg/day for 7 days starting 2 days prior to smoke exposure and continuing 1 day post-exposure. The effects of GSNOR inhibitors were assessed by quantitating the numbers of total cells, leukocytes, and leukocytes differentials in the BALF via light microscopy and the levels of BALF chemokines via ELISA at approximately 24 h after the last smoke exposure. The effect of GSNOR inhibitors were compared to vehicle treated controls. The PDE4 inhibitor, roflumilast, was used as the positive control for the study. A group of naïve mice (N=8) was exposed to air and used as a negative control for the study.

Data set [6] can be described thus: Mouse pharmacokinetic (PK) study. The data set is classed as in vivo. The note with it: male, BALB/c, plasma, po, 10 mg/kg, male BALB/c mice, 2 mg/kg IV, 10 mg/kg PO, read-out: oral bioavailability (% F). An excerpt:
The mouse was used to determine the pharmacokinetics of compounds of the invention. This species is widely used to assess the bioavailability of compounds by administering both oral (PO) and intravenous (IV) test articles. Efficacy of the compounds of the invention was compared by assessing plasma exposure in male BALB/c mice either via IV or PO administration at the times of peak activity.
Compounds of the invention were reconstituted in a phosphate buffered saline (PBS)/10% Solutol (HS 15) clear solution resulting in a concentration of 0.2 mg/mL and administered to mice (2 mg/kg) as a single IV dose. Animals were dosed via the lateral tail vein. Blood samples were collected at designated time points (0.083, 0.25, 0.5, 1, 2, 4, 8, 16, 24 hours) by cardiac puncture under isoflurane anesthesia (up to 1 mL blood per animal). The blood was collected into tubes containing Li-Heparin. The blood samples were kept on ice until centrifugation within approximately 30 minutes of collection. The plasma was transferred into labeled polypropylene tubes and frozen at −70° C. until analyzed by LC/MS/MS.
The compounds of the invention were reconstituted in 40% Propylene Glycol/40% Propylene Carbonate/20% of a 5% Sucrose clear solution resulting in a concentration of 2 mg/mL and administered to mice (10 mg/kg) as a single oral dose via gavage. Blood samples were collected at 0.25, 0.5, 1, 2, 4, 8, 12, 16, 20 and 24 hours post dose by cardiac puncture under isoflurane anesthesia. The blood was collected in tubes containing Li-Heparin. The blood samples were kept on ice until centrifugation within approximately 30 minutes of collection. The plasma was transferred into labeled polypropylene tubes and frozen at −70° C. until analyzed by LC/MS/MS.
Plasma samples at each timepoint were analyzed using a LC-MS/MS with a lower limit of quantification (LLOQ) of 1 ng/mL. Plasma was analyzed to determine the amount of the compound of the invention in each sample and regression curves generated for each compounds of the invention in the relevant matrixes.
WinNonlin analysis was used for calculating PK parameters for both the IV and PO administrations:
PK parameters for IV portion—AUClast; AUCINF; T1/2; Cl; Vss; Cmax; MRT
PK parameters for PO portion—AUClast; AUCINF; T1/2; Cmax; Cl, MRT.
In addition to the above PK parameters, bioavailability (% F) was calculated.

Setting [7] is: oral 1 mg/kg/day for 10 days, prophylactic.

T1 sequence (P11766 whole entry): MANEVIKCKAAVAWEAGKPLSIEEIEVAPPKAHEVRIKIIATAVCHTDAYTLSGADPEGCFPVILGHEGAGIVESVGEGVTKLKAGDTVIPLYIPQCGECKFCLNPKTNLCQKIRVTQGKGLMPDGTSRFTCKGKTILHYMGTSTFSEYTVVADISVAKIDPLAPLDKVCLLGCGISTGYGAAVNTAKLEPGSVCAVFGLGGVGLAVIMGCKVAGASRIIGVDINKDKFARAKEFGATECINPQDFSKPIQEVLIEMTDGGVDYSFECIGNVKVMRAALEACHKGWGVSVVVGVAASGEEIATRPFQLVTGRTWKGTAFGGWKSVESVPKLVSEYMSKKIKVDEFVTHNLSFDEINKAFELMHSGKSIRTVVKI

On to `O=C(O)c1ccc(-c2ccc3cc(O)ccc3c2)c(Cl)c1` [III-1], for which the “decrease of percent of mice with severe colon injury scores via endoscopy” value in data set [1] is 50 % of vehicle control; in data set [4] (setting [7]) it was 17 % of vehicle control. The “decrease of percent of mice with severe colon injury scores via histopathology” value in data set [1] is 17 % of vehicle control; in data set [4] (setting [7]) it was 21 % of vehicle control. Further, the half-maximal inhibitory concentration (IC50) in data set [2] was < 100 nM. The “effects compared with roflumilast” value in data set [3] is “comparable to those of roflumilast”.
`O=C(O)c1ccc(-c2ccc3cc(O)ccc3n2)cc1` [Compound I-3]: in data set [2], the IC50 was < 100 nM. Besides, the “effects compared with roflumilast” value in data set [5] is “comparable to or greater than those observed for roflumilast”. The BALF chemokines result in data set [5] (oral 10 mg/kg/day for 7 days) is reported as “restored BALF chemokines towards levels observed in naïve mice”. Also, the circulating inflammatory cytokines entry in data set [4] (oral 0.1, 1, or 10 mg/kg/day for 10 days) is “restored circulating inflammatory cytokines towards levels observed in untreated naïve mice”. Further, the “effects compared with prednisolone” value in data set [4] (prednisolone 3 mg/kg/day oral) was “comparable to or greater than those observed for prednisolone”.
Turning to `O=C(O)c1ccc(-c2ccc3cc(O)ccc3n2)c(F)c1` [Compound I-13], in data set [1], the “decrease of percent of mice with severe colon injury scores via endoscopy” value is on record as 52 % of vehicle control and the “decrease of percent of mice with severe colon injury scores via histopathology” value is reported as 53 % of vehicle control. Further, the 50% inhibitory concentration (IC50) in data set [2] was < 100 nM. In addition, in data set [3] (oral 1 mg/kg/day for 11 days), the “inhibition of smoke-induced increase in lymphocytes in BAL” value is on record as 60%, the “inhibition of smoke-induced increase in macrophages in BAL” value is recorded as 53%, the “inhibition of smoke-induced increase in neutrophils in BAL” value is recorded as 67% and the “inhibition of smoke-induced increase in total cells in BAL” value came to 56%. In addition, the “effects compared with roflumilast” value in data set [3] is “comparable to those of roflumilast”.
As to `O=C(O)c1ccc(-c2nc3ccc(O)cc3cc2Cl)cc1` [Compound I-19], in data set [2], the half-maximal inhibitory concentration (IC50) was < 100 nM. Moreover, in data set [6], the bioavailability was > 9%.
Take `O=C(O)c1ccc(-c2nc3ccc(O)cc3cc2Cl)c(F)c1` [Compound I-28]: in data set [2], the concentration for half-maximal inhibition (IC50) is < 100 nM. The bioavailability in data set [6] was > 9%.
On the same counts, the results for `Oc1ccc2nc(-c3ccc(-c4nnn[nH]4)cc3)ccc2c1` [Compound I-4] are < 100 nM and > 9%.
